The source made the active and inactive calls. The rule behind the calls is not given here.
Assays:
[1] = tested on: HeLa; assay: Induction of apoptosis in human HeLa cells assessed as necrotic cells at 100 nM after 48 hrs by Annexin V-FITC/propidium iodide staining based flow cytometry (reference value: 0.9%); assay type: functional
[2] = tested on: HeLa; assay: Induction of apoptosis in human HeLa cells assessed as late apoptotic cells at 200 nM after 48 hrs by Annexin V-FITC/propidium iodide staining based flow cytometry (reference value: 2%); assay type: functional
[3] = tested on: HUVEC; assay: Antiangiogenic activity against HUVEC assessed as disruption of capillary-like tube formation at 50 nM after 12 hrs by inverted microscopic method; assay type: functional, cell-based; conditions: Homo sapiens
[4] = tested on: Mus musculus; assay: Toxicity in Balb/c nude mouse xenografted with human A2780 cells assessed as abnormality in liver at 8 mg/kg, ip once in every 2 days measured after 14 days by H and E staining based assay; assay type: organism-based; conditions: in vivo, 336 h
[5] = tested on: HeLa; assay: Antiproliferative activity against human HeLa cells after 48 hrs by MTT assay; assay type: functional, cell-based
[6] = Acute toxicity in ICR mouse assessed as survival rate at 125 mg/kg, ip measured on day 14 (reference value: 100%); assay type: organism-based; conditions: in vivo
[7] = species on record: Homo sapiens; assay: Disruption of microtubule structure in human SKOV3 cells assessed as decrease in density at 100 nM after 24 hrs by DAPI staining based immunofluorescence assay; assay type: cell-based
[8] = tested on: Mus musculus; assay: Acute toxicity in ICR mouse assessed as death at 100 to 200 mg/kg, ip measured after 4 days; assay type: organism-based; conditions: in vivo, 96 h
[9] = tested on: A2780; assay: Antitumor activity against human A2780 cells xenografted in Balb/c nude mouse assessed as isolated tumor weight inhibition at 8 mg/kg, ip once in every 2 days measured after 14 days; assay type: functional, organism-based
[10] = tested on: HeLa; assay: Cell cycle arrest in human HeLa cells assessed as accumulation at G2/M-phase at 50 nM after 24 hrs by propidium iodide staining based flow cytometry; assay type: functional
[11] = tested on: Mus musculus; assay: Acute toxicity in ICR mouse assessed as death at 150 mg/kg, ip measured after 3 days; assay type: organism-based; conditions: in vivo, 72 h
[12] = tested on: MDA-MB-231; assay: Antiproliferative activity against human MDA-MB-231 cells after 48 hrs by MTT assay; assay type: functional, cell-based; conditions: MDA-MB-231, 48 h

With `COc1ccc([C@H]2[C@H](C)C(=O)N2c2cc(OC)c(OC)c(OC)c2)cc1O` the Activity [1] was 7.5%, the Activity [2] was 33.8% and the Activity [3] was “Active”. For the same compound, the Activity [4] was “Non-Toxic”, the IC50 [5] was 1 nM and the survival at 14 day [6] was 70%. The Activity [7] was “Active”, the Activity [8] was “Non-Toxic” and the inhibition [9] was “Active”. For the same compound, the Activity [10] was 100%, the Activity [11] was “Non-Toxic” and the IC50 [12] was 3 nM.
